In PubChem BioAssay AID248 (DTP/NCI, 2004):
“And” between values parts separate entries of the source, which are not always exact repeats. Equal values may be shown once. Inconclusive results and toxic doses are left out. Rule as the data show it: active = T/C of 150% or more; inactive = T/C below 125%.

System: L1210 leukemia ip in BDF1 mice, survival T/C
Test: NCI In Vivo Anticancer Drug Screen. Data for tumor model L1210 Leukemia (intraperitoneal) in B6D2F1 (BDF1) mice
Details: endpoint: mean survival time, higher = longer survival
Procedure, shortened: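 Tumor cells were implanted, animals were treated, and survival was followed. The result divides the treated measurement by the vehicle-control measurement.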

[1] = dose: 100.0 mg/kg/injection, schedule: Q01DX009 (ip), vehicle: saline
[2] = dose: 100.0 mg/kg/injection, schedule: Q04DX003 (ip), vehicle: saline
[3] = dose: 200.0 mg/kg/injection, schedule: Q01DX009 (ip), vehicle: saline
[4] = dose: 200.0 mg/kg/injection, schedule: Q04DX003 (ip), vehicle: saline
[5] = dose: 400.0 mg/kg/injection, schedule: Q01DX009 (ip), vehicle: saline
[6] = dose: 400.0 mg/kg/injection, schedule: Q04DX003 (ip), vehicle: saline
[7] = dose: 100.0 mg/kg/injection, schedule: Q01DX001 (ip), vehicle: saline

Measured: T/C

CC12CCC(/C(=C/N(O)/C=C3\C(=O)C4(C)CCC3C4(C)C)C1=O)C2(C)C
inactive: dose: 75.0 mg/kg/injection, schedule: Q01DX001 (ip), vehicle: saline 96 % of control | dose: 150.0 mg/kg/injection, schedule: Q01DX001 (ip), vehicle: saline 91 % of control | dose: 300.0 mg/kg/injection, schedule: Q01DX001 (ip), vehicle: saline 94 % of control

Cc1nc(-c2ccc(N=Cc3ccc(N(CCOS(C)(=O)=O)CCOS(C)(=O)=O)cc3Cl)cc2)c(C)s1
inactive: dose: 12.5 mg/kg/injection, schedule: Q01DX009 (ip), vehicle: Klucel (hydroxypropylcellulose) (HPC) 114 % of control | dose: 25.0 mg/kg/injection, schedule: Q01DX009 (ip), vehicle: Klucel (hydroxypropylcellulose) (HPC) 111 % of control

Clc1ccnc(Cl)n1
inactive: [1] 97 % of control | [2] 96 % of control | [3] 101 % of control | [4] 96 % of control | [5] 97 % of control | [6] 97 % of control

CC(O)C[N+](=O)[O-] (stereo not given)
inactive: dose: 50.0 mg/kg/injection, schedule: Q01DX009 (ip), vehicle: saline 103 % of control | [1] 98 % of control | [3] 106 % of control

Nc1nc(N)c(N)c(SCC(=O)C(=O)O)n1
inactive: dose: 25.0 mg/kg/injection, schedule: Q01DX001 (ip), vehicle: saline with Tween-80 108 % of control | dose: 50.0 mg/kg/injection, schedule: Q01DX001 (ip), vehicle: saline with Tween-80 111 % of control | dose: 100.0 mg/kg/injection, schedule: Q01DX001 (ip), vehicle: saline with Tween-80 106 % of control and 108 % of control | dose: 200.0 mg/kg/injection, schedule: Q01DX001 (ip), vehicle: saline with Tween-80 115 % of control

CCC(=O)c1ccc(Cc2ccc(C(=O)CC)cc2)cc1
inactive: dose: 125.0 mg/kg/injection, schedule: Q01DX001 (ip), vehicle: saline 104 % of control | dose: 250.0 mg/kg/injection, schedule: Q01DX001 (ip), vehicle: saline 101 % of control | dose: 500.0 mg/kg/injection, schedule: Q01DX001 (ip), vehicle: saline 93 % of control | dose: 1000.0 mg/kg/injection, schedule: Q01DX001 (ip), vehicle: saline 98 % of control

O=C1Cc2ccccc2CN1
inactive: dose: 75.0 mg/kg/injection, schedule: Q01DX001 (ip), vehicle: acetone 100 % of control | dose: 150.0 mg/kg/injection, schedule: Q01DX001 (ip), vehicle: acetone 97 % of control

NC(=O)n1cncn1
inactive: [7] 90 % of control | dose: 100.0 mg/kg/injection, schedule: Q01DX009 (ip), vehicle: acetone 89 % of control | dose: 200.0 mg/kg/injection, schedule: Q01DX001 (ip), vehicle: saline 107 % of control | dose: 200.0 mg/kg/injection, schedule: Q01DX009 (ip), vehicle: acetone 100 % of control | dose: 400.0 mg/kg/injection, schedule: Q01DX001 (ip), vehicle: saline 100 % of control | dose: 400.0 mg/kg/injection, schedule: Q01DX009 (ip), vehicle: acetone 91 % of control

CC(C)(C)[Si](C)(C)OC1CCP(C)(=S)CC1 (stereo not given)
inactive: dose: 100.0 mg/kg/injection, schedule: Q04DX002 (ip), vehicle: saline with Tween-80 98 % of control | dose: 200.0 mg/kg/injection, schedule: Q04DX002 (ip), vehicle: saline with Tween-80 91 % of control | dose: 400.0 mg/kg/injection, schedule: Q04DX002 (ip), vehicle: saline with Tween-80 95 % of control

CC(C)(C)C(Br)CBr (stereo not given)
inactive: dose: 50.0 mg/kg/injection, schedule: Q01DX009 (ip), vehicle: saline with Tween-80 101 % of control | dose: 100.0 mg/kg/injection, schedule: Q01DX009 (ip), vehicle: saline with Tween-80 101 % of control | dose: 200.0 mg/kg/injection, schedule: Q01DX009 (ip), vehicle: saline with Tween-80 97 % of control

C1OC1[C@@H]1CC[C@H]1C1CO1 (stereo not given in full)
inactive: dose: 50.0 mg/kg/injection, schedule: Q01DX001 (ip), vehicle: saline 98 % of control and 112 % of control | dose: 51.1 mg/kg/injection, schedule: Q01DX Z (ip), vehicle: carboxymethylcellulose (CMC) 103 % of control | dose: 51.1 mg/kg/injection, schedule: Q01DX Z (ip), vehicle: methylcellulose (MC) 109 % of control | dose: 76.6 mg/kg/injection, schedule: Q01DX Z (ip), vehicle: carboxymethylcellulose (CMC) 114 % of control | dose: 76.6 mg/kg/injection, schedule: Q01DX Z (ip), vehicle: methylcellulose (MC) 118 % of control | dose: 88.0 mg/kg/injection, schedule: Q01DX001 (ip), vehicle: saline 107 % of control | [7] 112 % of control and 118 % of control | dose: 115.0 mg/kg/injection, schedule: Q01DX Z (ip), vehicle: methylcellulose (MC) 106 % of control | dose: 133.0 mg/kg/injection, schedule: Q01DX001 (ip), vehicle: saline 109 % of control

CC1=CC(c2ccc3c(c2)OCO3)c2c(c3ccccc3oc2=O)O1 (stereo not given)
inactive: dose: 6.25 mg/kg/injection, schedule: Q01DX009 (ip), vehicle: water 98 % of control | dose: 12.5 mg/kg/injection, schedule: Q01DX009 (ip), vehicle: water 93 % of control | dose: 25.0 mg/kg/injection, schedule: Q01DX009 (ip), vehicle: water 100 % of control and 90 % of control | dose: 50.0 mg/kg/injection, schedule: Q01DX009 (ip), vehicle: water 86 % of control

COC(=O)C(O)c1ccc2c(c1)OCO2 (stereo not given)
inactive: dose: 100.0 mg/kg/injection, schedule: Q04DX003 (ip), vehicle: saline sonified 97 % of control | dose: 200.0 mg/kg/injection, schedule: Q04DX003 (ip), vehicle: saline sonified 97 % of control | dose: 400.0 mg/kg/injection, schedule: Q04DX003 (ip), vehicle: saline sonified 93 % of control

Cc1ccc(NC(=O)N(C)N=O)cc1
inactive: dose: 17.7 mg/kg/injection, schedule: Q01DX009 (ip), vehicle: carboxymethylcellulose (CMC) 118 % of control | dose: 26.6 mg/kg/injection, schedule: Q01DX009 (ip), vehicle: carboxymethylcellulose (CMC) 117 % of control | dose: 40.0 mg/kg/injection, schedule: Q01DX009 (ip), vehicle: carboxymethylcellulose (CMC) 120 % of control | dose: 50.0 mg/kg/injection, schedule: Q01DX001 (ip), vehicle: Klucel (hydroxypropylcellulose) (HPC) 119 % of control | dose: 60.0 mg/kg/injection, schedule: Q01DX009 (ip), vehicle: carboxymethylcellulose (CMC) 88 % of control | dose: 89.0 mg/kg/injection, schedule: Q01DX001 (ip), vehicle: carboxymethylcellulose (CMC) 107 % of control | dose: 100.0 mg/kg/injection, schedule: Q01DX001 (ip), vehicle: Klucel (hydroxypropylcellulose) (HPC) 111 % of control | dose: 100.0 mg/kg/injection, schedule: Q01DX001 (ip), vehicle: carboxymethylcellulose (CMC) 116 % of control | dose: 133.0 mg/kg/injection, schedule: Q01DX001 (ip), vehicle: carboxymethylcellulose (CMC) 122 % of control | dose: 200.0 mg/kg/injection, schedule: Q01DX001 (ip), vehicle: Klucel (hydroxypropylcellulose) (HPC) 114 % of control | dose: 400.0 mg/kg/injection, schedule: Q01DX001 (ip), vehicle: Klucel (hydroxypropylcellulose) (HPC) 114 % of control

Cc1ccc(CNC(=S)Nc2ccccc2)c(C)c1
inactive: dose: 100.0 mg/kg/injection, schedule: Q04DX002 (ip), vehicle: Klucel (hydroxypropylcellulose) (HPC) 96 % of control | dose: 200.0 mg/kg/injection, schedule: Q04DX002 (ip), vehicle: Klucel (hydroxypropylcellulose) (HPC) 103 % of control | dose: 400.0 mg/kg/injection, schedule: Q04DX002 (ip), vehicle: Klucel (hydroxypropylcellulose) (HPC) 103 % of control

CC(=O)OC1CCC2(C)C(CCC3C4CCC(=O)OC4(C)CC(=O)C32)C1 (stereo not given)
inactive: dose: 100.0 mg/kg/injection, schedule: Q04DX003 (sc), vehicle: steriod suspending solution 104 % of control | dose: 200.0 mg/kg/injection, schedule: Q04DX003 (sc), vehicle: steriod suspending solution 100 % of control | dose: 400.0 mg/kg/injection, schedule: Q04DX003 (sc), vehicle: steriod suspending solution 97 % of control

Cc1ccc(CCOC(=O)c2cc([N+](=O)[O-])cc([N+](=O)[O-])c2)cc1
inactive: dose: 75.0 mg/kg/injection, schedule: Q01DX001 (ip), vehicle: carboxymethylcellulose (CMC) 94 % of control | dose: 150.0 mg/kg/injection, schedule: Q01DX001 (ip), vehicle: carboxymethylcellulose (CMC) 94 % of control | dose: 300.0 mg/kg/injection, schedule: Q01DX001 (ip), vehicle: carboxymethylcellulose (CMC) 90 % of control

CCCC(=O)Nc1ccc(NS(C)(=O)=O)cc1OC
inactive: [1] 103 % of control | [2] 102 % of control | [3] 100 % of control | [4] 102 % of control | [5] 102 % of control | [6] 100 % of control

Cc1cc(=O)[nH]c2ccccc12
inactive: dose: 100.0 mg/kg/injection, schedule: Q04DX003 (ip), vehicle: saline with Tween-80 91 % of control | dose: 200.0 mg/kg/injection, schedule: Q04DX003 (ip), vehicle: saline with Tween-80 95 % of control
